Measured values published in patent US12485134B2, “Use of nicotinamide riboside, nicotinic acid riboside, reduced nicotinyl riboside compounds, and nicotinyl riboside compound derivatives in formulations” (ChromaDex Inc., priority 2019, dated 2025).

Assay: Stability of NR-Cl in whey protein isolate solutions (% nicotinamide degradant, vs control of NR-Cl in water only)
Format: physicochemical
Details: for increase in nicotinamide: after 1 day at refrigerated conditions
Procedure: A. Solutions of hydrolyzed whey protein isolate (>90% protein, 2-7% degree of hydrolysis) were prepared at varying concentrations and filtered through 0.2 μm sterile filters. An aliquot of sterile nicotinamide riboside chloride (“NR-Cl,” a salt of NR, I) in water solution was spiked into the sterile whey solutions, targeting a final NR-Cl concentration of 1 mmol per liter (0.3 mg/mL). The solutions containing the mixture of hydrolyzed whey and NR-Cl were filtered through 10 kDa molecular weight cutoff centrifuge filters to remove the whey proteins (14-80 kDa) and any NR-Cl that was bound to the proteins. Any NR-Cl that was not bound to the whey proteins was recovered in the filtrate and quantitated by HPLC.
The solutions of hydrolyzed whey protein isolate and NR-Cl were stored at ambient and refrigerated conditions and analyzed at various timepoints for NR-Cl protein binding and stability.
A study measuring the stability of NR-Cl in hydrolyzed and non-hydrolyzed whey protein was conducted with 2 mmol/L NR-Cl (0.6 mg/mL) and 20 mg/mL protein (33.3:1 wt:wt protein:NR-Cl). […] (See Table 5).

SMILES: NC(=O)c1ccc[n+]([C@@H]2O[C@H](CO)[C@@H](O)[C@H]2O)c1.[Cl-] [NR-Cl, nicotinamide riboside chloride]
- % Nicotinamide (Control (NR-Cl in water only), 0 days ambient): 0.2%
- % Nicotinamide (Control (NR-Cl in water only), 0 days refrigerated): 0.2%
- % Nicotinamide (Control (NR-Cl in water only), 3 days ambient): 3.8%
- % Nicotinamide (Control (NR-Cl in water only), 5 days ambient): 4.8%
- % Nicotinamide (Control (NR-Cl in water only), 7 days ambient): 5.3%
- % Nicotinamide (Control (NR-Cl in water only), 30 days refrigerated): 2.3%
- % Nicotinamide (Hydrolyzed Whey Protein Isolate 20 mg/mL, 2 mmol/L NR-Cl (33.3:1 wt:wt), 0 days refrigerated): 0.1%
- % Nicotinamide (Hydrolyzed Whey Protein Isolate 20 mg/mL, 2 mmol/L NR-Cl (33.3:1 wt:wt), 1 day refrigerated): 0.1%
- % Nicotinamide (Non-Hydrolyzed Whey Protein Isolate 20 mg/mL, 2 mmol/L NR-Cl (33.3:1 wt:wt), 0 days refrigerated): 0.3%
- % Nicotinamide (Non-Hydrolyzed Whey Protein Isolate 20 mg/mL, 2 mmol/L NR-Cl (33.3:1 wt:wt), 1 day refrigerated): 5.4%
- increase in nicotinamide (hydrolyzed whey solution): did not show any increase
- % Nicotinamide (hydrolyzed whey:NR-Cl 18.3:1 (wt:wt), 0 days ambient): 0.1%
- % Nicotinamide (hydrolyzed whey:NR-Cl 18.3:1 (wt:wt), 0 days refrigerated): 0.1%
- % Nicotinamide (hydrolyzed whey:NR-Cl 18.3:1 (wt:wt), 3 days ambient): 2.2%
- % Nicotinamide (hydrolyzed whey:NR-Cl 18.3:1 (wt:wt), 5 days ambient): 3.3%
- % Nicotinamide (hydrolyzed whey:NR-Cl 18.3:1 (wt:wt), 7 days ambient): 3.9%
- % Nicotinamide (hydrolyzed whey:NR-Cl 18.3:1 (wt:wt), 30 days refrigerated): 1.5%
- % Nicotinamide (hydrolyzed whey:NR-Cl 37:1 (wt:wt), 0 days ambient): 0.2%
- % Nicotinamide (hydrolyzed whey:NR-Cl 37:1 (wt:wt), 0 days refrigerated): 0.2%
- % Nicotinamide (hydrolyzed whey:NR-Cl 37:1 (wt:wt), 3 days ambient): 2.1%
- % Nicotinamide (hydrolyzed whey:NR-Cl 37:1 (wt:wt), 5 days ambient): 3.1%
- % Nicotinamide (hydrolyzed whey:NR-Cl 37:1 (wt:wt), 7 days ambient): 3.8%
- % Nicotinamide (hydrolyzed whey:NR-Cl 37:1 (wt:wt), 30 days refrigerated): 1.4%
- % Nicotinamide (hydrolyzed whey:NR-Cl 73:1 (wt:wt), 0 days ambient): 0.2%
- % Nicotinamide (hydrolyzed whey:NR-Cl 73:1 (wt:wt), 0 days refrigerated): 0.2%
- % Nicotinamide (hydrolyzed whey:NR-Cl 73:1 (wt:wt), 3 days ambient): 2.4%
- % Nicotinamide (hydrolyzed whey:NR-Cl 73:1 (wt:wt), 5 days ambient): 3.2%
- % Nicotinamide (hydrolyzed whey:NR-Cl 73:1 (wt:wt), 7 days ambient): 4.2%
- % Nicotinamide (hydrolyzed whey:NR-Cl 73:1 (wt:wt), 30 days refrigerated): 1.6%
- % Nicotinamide (hydrolyzed whey:NR-Cl 147:1 (wt:wt), 0 days ambient): 0.3%
- % Nicotinamide (hydrolyzed whey:NR-Cl 147:1 (wt:wt), 3 days ambient): 2.4%
- % Nicotinamide (hydrolyzed whey:NR-Cl 147:1 (wt:wt), 5 days ambient): 3.4%
- % Nicotinamide (hydrolyzed whey:NR-Cl 147:1 (wt:wt), 7 days ambient): 4.1%
- % Nicotinamide (hydrolyzed whey:NR-Cl 293:1 (wt:wt), 0 days ambient): 0.6%
- % Nicotinamide (hydrolyzed whey:NR-Cl 293:1 (wt:wt), 3 days ambient): 2.8%
- % Nicotinamide (hydrolyzed whey:NR-Cl 293:1 (wt:wt), 7 days ambient): 4.4%
- increase in nicotinamide (non-hydrolyzed whey solution): 5%
